Assays:
common chickweed = assay: Test F preemergence test; type: in vivo, Stellaria media; conditions: scale 0 to 100
From the text: (§1) Seeds of plant species selected from bermudagrass (Cynodon dactylon), Surinam grass (Brachiaria decumbens), large crabgrass (Digitaria sanguinalis), green foxtail (Setaria viridis), goosegrass (Eleusine indica), johnsongrass (Sorghum halepense), kochia (Kochia scoparia), pitted morningglory (Ipomoea lacunosa), purple nutsedge (Cyperus rotundus), common ragweed (Ambrosia elation), mustard (Brassica nigra), guineagrass (Panicum maximum), […] (Paspalum dilatatum), barnyardgrass (Echinochloa crus-galli), southern sandbur (Cenchrus echinatus), common sowthistle (Sonchus oleraceous), prickly […] spinosa), Italian ryegrass (Lolium multiflorum), common purslane (Portulaca oleracea), broadleaf signalgrass (Brachiaria platyphylla), common groundsel (Senecio vulgaris), common chickweed (Stellaria media), Virginia dayflower (Commelina virginica), annual bluegrass (Poa annua), naked crabgrass (Digitaria nuda), […] cochinchinensis), quackgrass (Elytrigia repens), Canada horseweed (Conyza canadensis), field bindweed (Convolvulus arvensis), […] (Bidens bipinnata), common mallow (Malva sylvestris), Russian thistle (Salsola kali), and sugarcane (Saccharum officinarum) were planted and treated preemergence with test chemicals formulated in a non-phytotoxic solvent mixture which included a surfactant. At a different time, sugarcane was treated with postemergence applications of some of the test chemicals formulated in the same manner. Plants were approximately 3- to 4-leaf stage for the postemergence treatments. Treated plants and controls were maintained in a greenhouse for 14 to 21 days, after which time all species were compared to controls and visually evaluated. […] A dash (-) response means no test result.

common sowthistle = assay: Test F preemergence test; type: in vivo, Sonchus oleraceous; conditions: scale 0 to 100
From the text: as §1

chickweed = assay: Test C postemergence test; type: in vivo, Stellaria media; conditions: for Plant response rating (0 to 100), Chickweed: 31 g ai/ha; for Plant response rating, Chickweed: scale 0 to 100, 0 no effect, 100 complete control
Method: (§2) At the same time, plants selected from these crop and weed species and also winter barley (Hordeum vulgare), canarygrass (Phalaris minor), and chickweed (Stellaria media) were treated with postemergence applications of some of the test chemicals formulated in the same manner. Plants ranged in height from 2 to 18 cm (1- to 4-leaf stage) for postemergence treatments. […] At time of treatment, test pots were flooded to 3 cm above the soil surface, treated by application of test compounds directly to the paddy water, and then maintained at that water depth for the duration of the test. Treated plants and controls were maintained in a greenhouse for 13 to 15 days, after which time all species were compared to controls and visually evaluated. […] A dash (-) response means no test result.

Russian thistle = assay: Test F preemergence test; type: in vivo, Salsola kali; conditions: scale 0 to 100
From the text: as §1

winter barley = assay: Test C postemergence test; type: in vivo, Hordeum vulgare; conditions: for Plant response rating (0 to 100), Barley: 31 g ai/ha; for Plant response rating, Barley: scale 0 to 100, 0 no effect, 100 complete control
Method: as §2

canarygrass = assay: Test C postemergence test; type: in vivo, Phalaris minor; conditions: for Plant response rating (0 to 100), Canarygrass: 31 g ai/ha; for Plant response rating, Canarygrass: scale 0 to 100, 0 no effect, 100 complete control
Method: as §2

Canada horseweed = assay: Test F preemergence test; type: in vivo, Conyza canadensis; conditions: scale 0 to 100
From the text: as §1

spanishneedles = assay: Test F preemergence test; type: in vivo, Bidens bipinnata; conditions: scale 0 to 100; for Spanishneedles plant response rating: 125 g ai/ha
From the text: as §1

Row | Structure (SMILES) | Chickweed plant response rating (common chickweed; 62 g ai/ha, Preemergence) | Plant response rating, Chickweed (common chickweed; Preemergence, 31 g ai/ha) | Plant response rating, Sowthistle (common sowthistle; 16 g ai/ha, preemergence) | Plant response rating, Sowthistle (common sowthistle; Preemergence, 31 g ai/ha) | Plant response rating (0 to 100), Chickweed (chickweed) | Plant response rating, Chickweed (chickweed; 62 g ai/ha) | Plant response rating, Chickweed (chickweed; 125 g ai/ha) | Plant response rating, Chickweed (chickweed; 250 g ai/ha) | Plant response rating (0 to 100), Barley (winter barley) | Plant response rating, Barley (winter barley; 62 g ai/ha) | Plant response rating, Barley (winter barley; 125 g ai/ha) | Plant response rating, Barley (winter barley; 250 g ai/ha) | Plant response rating (0 to 100), Canarygrass (canarygrass) | Plant response rating, Canarygrass (canarygrass; 62 g ai/ha) | Plant response rating, Canarygrass (canarygrass; 125 g ai/ha) | Plant response rating, Canarygrass (canarygrass; 250 g ai/ha) | Chickweed plant response rating (common chickweed; 125 g ai/ha, preemergence) | Plant response rating, Horseweed (Canada horseweed; 16 g ai/ha, preemergence) | Horseweed plant response rating (Canada horseweed; 62 g ai/ha, Preemergence) | Horseweed plant response rating (Canada horseweed; 125 g ai/ha, preemergence) | further results
1 | CC(c1c(C(F)(F)F)nn(C)c1OC(F)F)S(=O)(=O)c1cccc[n+]1[O-] (stereo not shown) [Compound 5] | 100 | 100 | 100 | 100 | 0 | 0 | 10 | 85 | 0 | 0 | 20 | 20 | 0 | 0 | 0 | 0 |  |  |  |  | Plant response rating, Chickweed (common chickweed; 8 g ai/ha, preemergence): 100; Plant response rating, Chickweed (common chickweed; Preemergence, 16 g ai/ha): 100; Plant response rating, Sowthistle (common sowthistle; 8 g ai/ha, preemergence): 100; Sowthistle plant response rating (common sowthistle; 62 g ai/ha, Preemergence): 100; Plant response rating, Russian Thistle (Russian thistle; 8 g ai/ha, preemergence): 0; Russian Thistle plant response rating (Russian thistle; 62 g ai/ha, Preemergence): 60; Plant response rating, Russian Thistle (Russian thistle; Preemergence, 16 g ai/ha): 0; Plant response rating, Russian Thistle (Russian thistle; Preemergence, 31 g ai/ha): 0
2 | Cn1nc(C(F)(F)F)c(C[S+]([O-])c2ccc(F)c[n+]2[O-])c1OCC(F)(F)F (stereo not shown) [Compound 67] | 100 | 40 | 80 | 80 | 0 | 60 | 70 | 95 | 0 | 10 | 50 | 50 | 0 | 0 | 10 | 10 | 100 | 0 | 100 | 100 | Plant response rating, Horseweed (Canada horseweed; Preemergence, 31 g ai/ha): 0; Plant response rating, Spanishneedles (spanishneedles; 16 g ai/ha, preemergence): 0; Spanishneedles plant response rating (spanishneedles; preemergence): 98; Plant response rating, Spanishneedles (spanishneedles; Preemergence, 62 g ai/ha): 90; Plant response rating, Spanishneedles (spanishneedles; Preemergence, 31 g ai/ha): 65; Sowthistle plant response rating (common sowthistle; 125 g ai/ha, preemergence): 100; Plant response rating, Sowthistle (common sowthistle; Preemergence, 62 g ai/ha): 100
3 | Cn1nc(C(F)(F)F)c(C[S+]([O-])c2ccc(Cl)c[n+]2[O-])c1OCC(F)(F)F (racemic) [Compound 62] | 100 | 100 | 0 | 95 | 0 | 0 | 0 | 70 | 0 | 0 | 10 | 40 | 0 | 0 | 0 | 10 | 100 | 0 | 100 | 100 | Plant response rating, Chickweed (common chickweed; 16 g ai/ha, preemergence): 100; Plant response rating, Horseweed (Canada horseweed; Preemergence, 31 g ai/ha): 100; Plant response rating, Spanishneedles (spanishneedles; 16 g ai/ha, preemergence): 30; Spanishneedles plant response rating (spanishneedles; preemergence): 100; Plant response rating, Spanishneedles (spanishneedles; Preemergence, 62 g ai/ha): 75; Plant response rating, Spanishneedles (spanishneedles; Preemergence, 31 g ai/ha): 65; Sowthistle plant response rating (common sowthistle; 125 g ai/ha, preemergence): 98; Plant response rating, Sowthistle (common sowthistle; Preemergence, 62 g ai/ha): 98
